Reference: publication PMC10287566, “Signaling-specific inhibition of the CB1 receptor for cannabis use disorder: phase 1 and phase 2a randomized trials” (Nature Medicine, 2023)

Tests used:
Test in all cases: Eurofins binding screen
[1] = target: Serotonin transporter SET (Homo sapiens, UniProt P31645)
Bradykinin B2 = Bradykinin B2 (Homo sapiens, UniProt P30411)
[2] = target: Calcitonin gene-related peptide CGRP (Homo sapiens, UniProt O60894+Q16602)
[3] = target: PBR (peripheral benzodiazepine receptor) (Rattus norvegicus, UniProt P16257); settings: for Percent inhibition of control specific binding: 10 µM
Adenosine A1 = Adenosine A1 (Homo sapiens, UniProt P30542)
Serotonin 5-HT3 = Serotonin 5-HT3 (Homo sapiens, UniProt P46098)
Dopamine D2S = Dopamine D2S (Homo sapiens, UniProt P14416)
Muscarinic M4 = Muscarinic M4 (Homo sapiens, UniProt P08173)
PXR = PXR (Homo sapiens, UniProt O75469)
[4] = target: Cholecystokinin CCK1 (CCKA) (Homo sapiens, UniProt P32238)
Neurokinin NK3 = Neurokinin NK3 (Homo sapiens, UniProt P29371)
Dopamine D4.4 = Dopamine D4.4 (Homo sapiens, UniProt P21917)
Endothelin ETB = Endothelin ETB (Homo sapiens, UniProt P24530)
Adenosine A3 = Adenosine A3 (Homo sapiens, UniProt P0DMS8)
Endothelin ETA = Endothelin ETA (Homo sapiens, UniProt P25101)
Muscarinic M3 = Muscarinic M3 (Homo sapiens, UniProt P20309)
Vasopressin V1a = Vasopressin V1a (Homo sapiens, UniProt P37288)
[5] = target: Norepinephrine transporter NET (Homo sapiens, UniProt P23975)
Angiotensin-II AT1 = Angiotensin-II AT1 (Homo sapiens, UniProt P30556)
Prostanoid EP4 = Prostanoid EP4 (Homo sapiens, UniProt P35408)
ER = settings: 10 µM
Serotonin 5-HT1B = settings: 10 µM
Neuropeptide Y Y2 = Neuropeptide Y Y2 (Homo sapiens, UniProt P49146)
Adrenergic alpha2 = settings: 10 µM
PPAR gamma = PPAR gamma (Homo sapiens, UniProt P37231)
Serotonin 5-HT2A = Serotonin 5-HT2A (Homo sapiens, UniProt P28223)
Neurokinin NK1 = Neurokinin NK1 (Homo sapiens, UniProt P25103)
Serotonin 5-HT1A = Serotonin 5-HT1A (Homo sapiens, UniProt P08908)
GABA = settings: 10 µM
sigma = settings: 10 µM
Dopamine D3 = Dopamine D3 (Homo sapiens, UniProt P35462)
Opioid kappa (KOP) = settings: 10 µM
Melanocortin MC4 = Melanocortin MC4 (Homo sapiens, UniProt P32245)
Potassium channels KV = settings: 10 µM
[6] = target: Vasoactive intestinal peptide VPAC1 (VIP1) (Homo sapiens, UniProt P32241)
Opioid mu (MOP) = Opioid mu (MOP) (Homo sapiens, UniProt P35372)
Serotonin 5-HT2C = Serotonin 5-HT2C (Homo sapiens, UniProt P28335)
Chemokines CXCR2 (IL-8B) = Chemokines CXCR2 (IL-8B) (Homo sapiens, UniProt P25025)
Muscarinic M2 = Muscarinic M2 (Homo sapiens, UniProt P08172)
Prostanoid IP (PGI2) = Prostanoid IP (PGI2) (Homo sapiens, UniProt P43119)
Melatonin MT1 (ML1A) = Melatonin MT1 (ML1A) (Homo sapiens, UniProt P48039)
Somatostatin sst = settings: 10 µM
Serotonin 5-HT6 = Serotonin 5-HT6 (Homo sapiens, UniProt P50406)
Dopamine D5 = Dopamine D5 (Homo sapiens, UniProt P21918)
BZD (central) = settings: 10 µM
[7] = read-out: Percent inhibition of control specific binding

Sequence of PBR (peripheral benzodiazepine receptor) (P16257 whole entry): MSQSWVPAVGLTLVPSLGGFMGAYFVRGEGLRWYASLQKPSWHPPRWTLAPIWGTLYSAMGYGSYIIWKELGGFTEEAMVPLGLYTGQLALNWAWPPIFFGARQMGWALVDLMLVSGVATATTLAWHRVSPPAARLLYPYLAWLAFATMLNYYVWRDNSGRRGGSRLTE
Sequence of Adenosine A1 (P30542 whole entry): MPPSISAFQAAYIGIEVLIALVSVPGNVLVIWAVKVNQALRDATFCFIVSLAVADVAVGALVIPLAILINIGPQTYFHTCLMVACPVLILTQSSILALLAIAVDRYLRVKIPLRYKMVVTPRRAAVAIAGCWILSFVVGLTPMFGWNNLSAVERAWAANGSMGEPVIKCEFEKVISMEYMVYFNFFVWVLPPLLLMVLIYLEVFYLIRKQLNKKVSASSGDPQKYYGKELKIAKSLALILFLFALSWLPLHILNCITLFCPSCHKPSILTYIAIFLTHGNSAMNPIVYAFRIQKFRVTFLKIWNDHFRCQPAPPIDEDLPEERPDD
Sequence of Calcitonin gene-related peptide CGRP (Q16602 23-461): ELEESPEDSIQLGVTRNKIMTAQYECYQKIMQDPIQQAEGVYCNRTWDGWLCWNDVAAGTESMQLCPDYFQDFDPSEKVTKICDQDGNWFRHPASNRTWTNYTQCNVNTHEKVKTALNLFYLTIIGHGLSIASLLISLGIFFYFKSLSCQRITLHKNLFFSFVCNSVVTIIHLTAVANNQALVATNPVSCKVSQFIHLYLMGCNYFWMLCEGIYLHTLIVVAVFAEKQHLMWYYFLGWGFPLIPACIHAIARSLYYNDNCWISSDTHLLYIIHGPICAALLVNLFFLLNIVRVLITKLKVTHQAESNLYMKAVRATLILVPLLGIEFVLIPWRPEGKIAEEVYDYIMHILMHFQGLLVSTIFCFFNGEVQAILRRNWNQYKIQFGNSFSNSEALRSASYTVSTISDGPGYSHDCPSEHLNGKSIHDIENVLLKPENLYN
Sequence of Calcitonin gene-related peptide CGRP (O60894 27-148): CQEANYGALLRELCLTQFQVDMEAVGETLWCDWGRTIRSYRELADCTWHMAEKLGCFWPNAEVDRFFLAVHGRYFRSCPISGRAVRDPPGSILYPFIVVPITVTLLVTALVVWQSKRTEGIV
Sequence of Cholecystokinin CCK1 (CCKA) (P32238 whole entry): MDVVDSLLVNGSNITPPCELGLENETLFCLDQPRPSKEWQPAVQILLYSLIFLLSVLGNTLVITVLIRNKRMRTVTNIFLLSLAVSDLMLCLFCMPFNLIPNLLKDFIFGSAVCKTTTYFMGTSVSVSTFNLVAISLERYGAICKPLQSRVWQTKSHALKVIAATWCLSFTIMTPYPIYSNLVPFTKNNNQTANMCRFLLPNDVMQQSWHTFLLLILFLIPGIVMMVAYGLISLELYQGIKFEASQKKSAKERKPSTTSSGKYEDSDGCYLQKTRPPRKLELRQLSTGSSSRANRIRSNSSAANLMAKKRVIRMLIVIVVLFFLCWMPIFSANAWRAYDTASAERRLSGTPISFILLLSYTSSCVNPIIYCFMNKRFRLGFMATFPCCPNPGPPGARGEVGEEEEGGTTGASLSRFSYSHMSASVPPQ
Sequence of Vasopressin V1a (P37288 whole entry): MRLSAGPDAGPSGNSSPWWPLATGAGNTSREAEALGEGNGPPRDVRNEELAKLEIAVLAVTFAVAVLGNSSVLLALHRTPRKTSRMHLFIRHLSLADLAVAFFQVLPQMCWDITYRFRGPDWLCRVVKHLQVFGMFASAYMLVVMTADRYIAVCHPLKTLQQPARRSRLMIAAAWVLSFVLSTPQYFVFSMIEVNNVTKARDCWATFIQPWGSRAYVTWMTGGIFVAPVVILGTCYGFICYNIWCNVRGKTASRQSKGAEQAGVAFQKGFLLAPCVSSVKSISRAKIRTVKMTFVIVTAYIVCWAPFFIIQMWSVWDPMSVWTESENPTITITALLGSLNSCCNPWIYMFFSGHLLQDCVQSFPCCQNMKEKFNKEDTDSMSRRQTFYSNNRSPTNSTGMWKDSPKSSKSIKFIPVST
Sequence of Muscarinic M2 (P08172 whole entry): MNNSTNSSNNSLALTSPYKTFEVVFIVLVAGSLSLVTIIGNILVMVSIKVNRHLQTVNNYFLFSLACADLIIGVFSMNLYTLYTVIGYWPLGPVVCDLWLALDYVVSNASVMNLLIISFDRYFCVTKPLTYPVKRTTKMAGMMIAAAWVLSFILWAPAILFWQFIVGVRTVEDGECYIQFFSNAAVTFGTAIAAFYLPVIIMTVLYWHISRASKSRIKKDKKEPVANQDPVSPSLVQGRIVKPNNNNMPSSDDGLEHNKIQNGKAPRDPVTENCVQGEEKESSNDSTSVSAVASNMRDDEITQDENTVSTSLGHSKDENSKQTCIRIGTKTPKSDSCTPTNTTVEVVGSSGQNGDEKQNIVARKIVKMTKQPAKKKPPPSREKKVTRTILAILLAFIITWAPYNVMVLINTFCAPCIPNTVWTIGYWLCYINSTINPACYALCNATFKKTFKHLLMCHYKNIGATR
Sequence of Dopamine D5 (P21918 whole entry): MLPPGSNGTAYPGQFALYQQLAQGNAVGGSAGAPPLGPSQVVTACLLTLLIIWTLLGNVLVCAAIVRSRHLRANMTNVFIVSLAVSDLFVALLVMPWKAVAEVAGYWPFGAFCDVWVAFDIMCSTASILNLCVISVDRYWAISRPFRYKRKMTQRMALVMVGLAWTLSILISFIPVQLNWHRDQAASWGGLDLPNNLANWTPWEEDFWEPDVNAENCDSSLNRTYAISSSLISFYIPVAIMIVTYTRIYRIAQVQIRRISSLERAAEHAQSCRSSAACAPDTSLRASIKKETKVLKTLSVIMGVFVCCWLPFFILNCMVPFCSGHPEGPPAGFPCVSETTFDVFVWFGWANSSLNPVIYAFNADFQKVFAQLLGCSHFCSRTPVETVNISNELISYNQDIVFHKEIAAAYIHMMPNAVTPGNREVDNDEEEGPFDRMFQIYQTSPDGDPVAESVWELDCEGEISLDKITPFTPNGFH
Sequence of Opioid mu (MOP) (P35372 whole entry): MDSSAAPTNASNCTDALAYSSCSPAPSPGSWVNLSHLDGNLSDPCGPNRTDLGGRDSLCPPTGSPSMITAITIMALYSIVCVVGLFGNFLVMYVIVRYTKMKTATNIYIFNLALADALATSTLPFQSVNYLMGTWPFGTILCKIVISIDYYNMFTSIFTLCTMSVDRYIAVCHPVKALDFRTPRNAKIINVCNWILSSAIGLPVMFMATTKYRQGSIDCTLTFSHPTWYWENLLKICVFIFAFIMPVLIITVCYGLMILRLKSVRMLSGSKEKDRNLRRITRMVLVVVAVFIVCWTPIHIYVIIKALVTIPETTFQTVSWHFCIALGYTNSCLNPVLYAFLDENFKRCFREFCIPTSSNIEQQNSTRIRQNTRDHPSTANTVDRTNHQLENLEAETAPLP
Sequence of Melanocortin MC4 (P32245 whole entry): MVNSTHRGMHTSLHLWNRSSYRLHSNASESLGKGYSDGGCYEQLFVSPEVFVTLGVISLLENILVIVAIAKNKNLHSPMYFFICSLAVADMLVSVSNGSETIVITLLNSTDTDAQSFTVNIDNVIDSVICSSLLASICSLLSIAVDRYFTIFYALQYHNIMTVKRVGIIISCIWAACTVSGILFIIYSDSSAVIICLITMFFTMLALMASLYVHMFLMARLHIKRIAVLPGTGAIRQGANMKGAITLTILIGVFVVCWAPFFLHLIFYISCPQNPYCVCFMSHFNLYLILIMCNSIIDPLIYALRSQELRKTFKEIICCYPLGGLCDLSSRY
Sequence of Bradykinin B2 (P30411 whole entry): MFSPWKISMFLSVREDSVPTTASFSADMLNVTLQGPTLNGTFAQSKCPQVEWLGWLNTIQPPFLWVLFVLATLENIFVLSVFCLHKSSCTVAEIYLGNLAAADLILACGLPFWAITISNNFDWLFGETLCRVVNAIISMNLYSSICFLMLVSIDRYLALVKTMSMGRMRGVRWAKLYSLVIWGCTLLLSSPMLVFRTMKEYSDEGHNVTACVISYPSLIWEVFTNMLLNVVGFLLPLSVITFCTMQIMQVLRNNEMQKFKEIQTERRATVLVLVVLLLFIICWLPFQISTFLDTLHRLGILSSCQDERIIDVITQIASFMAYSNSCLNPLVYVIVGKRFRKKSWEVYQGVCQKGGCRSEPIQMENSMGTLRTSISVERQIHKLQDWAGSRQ
Sequence of Melatonin MT1 (ML1A) (P48039 whole entry): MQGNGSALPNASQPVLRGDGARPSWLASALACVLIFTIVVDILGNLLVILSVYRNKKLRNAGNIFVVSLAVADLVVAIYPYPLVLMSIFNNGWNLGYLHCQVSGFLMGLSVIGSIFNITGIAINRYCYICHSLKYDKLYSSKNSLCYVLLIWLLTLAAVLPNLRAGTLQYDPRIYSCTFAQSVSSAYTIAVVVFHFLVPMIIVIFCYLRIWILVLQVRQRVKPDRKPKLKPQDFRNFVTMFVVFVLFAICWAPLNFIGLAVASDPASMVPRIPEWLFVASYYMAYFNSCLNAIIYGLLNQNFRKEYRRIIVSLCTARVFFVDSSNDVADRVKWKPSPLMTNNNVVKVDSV
Sequence of Neuropeptide Y Y2 (P49146 whole entry): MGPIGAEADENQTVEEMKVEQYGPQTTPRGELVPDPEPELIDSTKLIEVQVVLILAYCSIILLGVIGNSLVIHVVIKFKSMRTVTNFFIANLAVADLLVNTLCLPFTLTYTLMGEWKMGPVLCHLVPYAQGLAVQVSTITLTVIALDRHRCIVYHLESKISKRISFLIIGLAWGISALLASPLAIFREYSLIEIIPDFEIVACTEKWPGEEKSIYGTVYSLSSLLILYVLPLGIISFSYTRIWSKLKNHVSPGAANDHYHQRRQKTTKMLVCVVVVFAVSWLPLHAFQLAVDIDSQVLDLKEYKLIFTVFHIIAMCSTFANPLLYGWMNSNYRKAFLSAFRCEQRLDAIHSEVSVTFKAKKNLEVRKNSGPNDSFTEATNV

COc1ccc(CO[C@H]2CC[C@@]3(C)C(=CC[C@H]4[C@@H]5CC[C@H](C(C)=O)[C@@]5(C)CC[C@@H]43)C2)cc1 [AEF0117, 3β-(4-methoxybenzyloxy)pregn-5-en-20-one]
inhibition at 10 µM [1, 7]: 8% | inhibition at 10 µM (Bradykinin B2; [7]): -1% | inhibition at 10 µM [2, 7]: -21% | inhibition at 10 µM [3, 7]: 4% | inhibition at 10 µM (Adenosine A1; [7]): 14% | inhibition at 10 µM (Serotonin 5-HT3; [7]): -7% | inhibition at 10 µM (Dopamine D2S; [7]): -1% | inhibition at 10 µM (Muscarinic M4; [7]): 0% | inhibition at 10 µM (PXR; [7]): 7% | inhibition at 10 µM [4, 7]: -19% | inhibition at 10 µM (Neurokinin NK3; [7]): -1% | inhibition at 10 µM (Dopamine D4.4; [7]): -7% | inhibition at 10 µM (Endothelin ETB; [7]): 2% | inhibition at 10 µM (Adenosine A3; [7]): -20% | inhibition at 10 µM (Endothelin ETA; [7]): -4% | inhibition at 10 µM (Muscarinic M3; [7]): -18% | inhibition at 10 µM (Vasopressin V1a; [7]): 0% | inhibition at 10 µM [5, 7]: -5% | inhibition at 10 µM (Angiotensin-II AT1; [7]): 7% | inhibition at 10 µM (Prostanoid EP4; [7]): 10% | Percent inhibition of control specific binding (ER): 31% | Percent inhibition of control specific binding (Serotonin 5-HT1B): -15% | inhibition at 10 µM (Neuropeptide Y Y2; [7]): -22% | Percent inhibition of control specific binding (Adrenergic alpha2): 7% | inhibition at 10 µM (PPAR gamma; [7]): 7% | inhibition at 10 µM (Serotonin 5-HT2A; [7]): 2% | inhibition at 10 µM (Neurokinin NK1; [7]): -18% | inhibition at 10 µM (Serotonin 5-HT1A; [7]): -11% | Percent inhibition of control specific binding (GABA): 9% | Percent inhibition of control specific binding (sigma): -4% | inhibition at 10 µM (Dopamine D3; [7]): 2% | Percent inhibition of control specific binding (Opioid kappa (KOP)): 1% | inhibition at 10 µM (Melanocortin MC4; [7]): -8% | Percent inhibition of control specific binding (Potassium channels KV): -5% | inhibition at 10 µM [6, 7]: -4% | inhibition at 10 µM (Opioid mu (MOP); [7]): -10% | inhibition at 10 µM (Serotonin 5-HT2C; [7]): 4% | inhibition at 10 µM (Chemokines CXCR2 (IL-8B); [7]): -1% | inhibition at 10 µM (Muscarinic M2; [7]): -3% | inhibition at 10 µM (Prostanoid IP (PGI2); [7]): -4% | inhibition at 10 µM (Melatonin MT1 (ML1A); [7]): -11% | Percent inhibition of control specific binding (Somatostatin sst): -4% | inhibition at 10 µM (Serotonin 5-HT6; [7]): -2% | inhibition at 10 µM (Dopamine D5; [7]): -2% | Percent inhibition of control specific binding (BZD (central)): 1%

CC(=O)[C@H]1CC[C@H]2[C@@H]3CC=C4C[C@@H](O)CC[C@]4(C)[C@H]3CC[C@]12C [pregnenolone, reference compound]
Percent inhibition of control specific binding ([1]; 10 µM): 1% | Percent inhibition of control specific binding (Bradykinin B2; 10 µM): -9% | Percent inhibition of control specific binding ([2]; 10 µM): -12% | Percent inhibition of control specific binding [3]: > 40% | Percent inhibition of control specific binding ([3]; listed as Preg): 42% | Percent inhibition of control specific binding (Adenosine A1; 10 µM): -25% | Percent inhibition of control specific binding (Serotonin 5-HT3; 10 µM): 6% | Percent inhibition of control specific binding (Dopamine D2S; 10 µM): 5% | Percent inhibition of control specific binding (Muscarinic M4; 10 µM): -4% | Percent inhibition of control specific binding (PXR; 10 µM): 15% | Percent inhibition of control specific binding ([4]; 10 µM): -30% | Percent inhibition of control specific binding (Neurokinin NK3; 10 µM): 11% | Percent inhibition of control specific binding (Dopamine D4.4; 10 µM): 20% | Percent inhibition of control specific binding (Endothelin ETB; 10 µM): 4% | Percent inhibition of control specific binding (Adenosine A3; 10 µM): 11% | Percent inhibition of control specific binding (Endothelin ETA; 10 µM): -3% | Percent inhibition of control specific binding (Muscarinic M3; 10 µM): 2% | Percent inhibition of control specific binding (Vasopressin V1a; 10 µM): 10% | Percent inhibition of control specific binding ([5]; 10 µM): -12% | Percent inhibition of control specific binding (Angiotensin-II AT1; 10 µM): -28% | Percent inhibition of control specific binding (Prostanoid EP4; 10 µM): 21% | Percent inhibition of control specific binding (ER): 26% | Percent inhibition of control specific binding (Serotonin 5-HT1B): -28% | Percent inhibition of control specific binding (Neuropeptide Y Y2; 10 µM): -9% | Percent inhibition of control specific binding (Adrenergic alpha2): -2% | Percent inhibition of control specific binding (PPAR gamma; 10 µM): 4% | Percent inhibition of control specific binding (Serotonin 5-HT2A; 10 µM): -1% | Percent inhibition of control specific binding (Neurokinin NK1; 10 µM): 17% | Percent inhibition of control specific binding (Serotonin 5-HT1A; 10 µM): 12% | Percent inhibition of control specific binding (GABA): 10% | Percent inhibition of control specific binding (sigma): 26% | Percent inhibition of control specific binding (Dopamine D3; 10 µM): 11% | Percent inhibition of control specific binding (Opioid kappa (KOP)): 38% | Percent inhibition of control specific binding (Melanocortin MC4; 10 µM): -15% | Percent inhibition of control specific binding (Potassium channels KV): -23% | Percent inhibition of control specific binding ([6]; 10 µM): -10% | Percent inhibition of control specific binding (Opioid mu (MOP); 10 µM): -5% | Percent inhibition of control specific binding (Serotonin 5-HT2C; 10 µM): -9% | Percent inhibition of control specific binding (Chemokines CXCR2 (IL-8B); 10 µM): -10% | Percent inhibition of control specific binding (Muscarinic M2; 10 µM): -4% | Percent inhibition of control specific binding (Prostanoid IP (PGI2); 10 µM): -12% | Percent inhibition of control specific binding (Melatonin MT1 (ML1A); 10 µM): 26% | Percent inhibition of control specific binding (Somatostatin sst): -8% | Percent inhibition of control specific binding (Serotonin 5-HT6; 10 µM): 5% | Percent inhibition of control specific binding (Dopamine D5; 10 µM): -4% | Percent inhibition of control specific binding (BZD (central)): -43%
